Measurements from patent US20150299659A1, “MUSCLE CELL PRODUCTION” (Monash University, priority 2014, published 2015).

What was measured:
Type in all cases: cell-based, human
hPSCs [1] = assay: FACS quantification of myogenic cell populations from differentiated hPSCs; conditions: for percentage of CXCR4+/C-MET+ and ACHR+ populations compared to CHIR+FGF2 cultures: single-agent conditions (CHIR only or FGF2 only)
Method: (§1) Experiments were performed using all four hPSC lines. When colony size reached >600 μm in diameter and colony density on the plate was approximately 30-40%, we induced differentiation of hPSC by switching the culture medium from mTESR1 to a chemically defined, serum-free medium DMEM-F12 supplemented with insulin-transferrin-selenium (ITS) (all from Sigma-Aldrich, St. Louis, Mo.). Starting at day 0 of differentiation, cells were cultured in the presence of 3 μM CHIR 99021 (Miltenyi Biotech, Auburn, Calif.) for 4 days. Culture medium was then replaced by ITS containing 20 ng/ml of FGF2 (Miltenyi Biotech) for a further 14 days. For each experimental control condition, hPSCs differentiation was induced as follows: 1) CHIR only: ITS medium containing 3 μM CHIR from days 0-4, followed by ITS medium only until day of analysis; and 2) FGF2 only: ITS medium only between days 0-4, followed by ITS medium containing 20 ng/ml FGF2 for 14 days. Medium was replaced daily until the day of the analysis.
(§2) Cells were dissociated with 0.05% trypsin or TrypLE Select (Invitrogen, Carlsbad, Calif.) to a single cell suspension and incubated with the appropriate fluorochrome-labelled antibodies (Table 1) at a concentration of 10^7 cells/ml for 30 minutes on ice. Indirect labelling of HNK and ACHR antibodies was done using goat anti-mouse Alexa Fluor 488 and goat anti-mouse PE (both from Molecular Probes, Invitrogen) as secondary antibodies. Labelled cells were sorted through a BD Influx (five lasers) flow sorter (BD Biosciences) according to the excitation requirements of the fluorochromes. Sorted populations were analyzed using FlowJo software (Tree Star Inc., Ashland, Oreg.).
Data were analyzed by two-way analysis of variance (ANOVA) followed by Bonferroni's post-test to calculate p values. Analyses were performed using statistical software (GraphPad Prism 5.04; GraphPad Software, San Diego, Calif.). Probability values <0.05 were considered statistically significant. Error bars in each figure represent the standard error of the mean of three or more individual experiments. For qPCR data, p values were calculated for changes in expression of markers over time compared to day 0. For quantitative analysis of FACS sorting data, the percentage of myogenic cells relative to the total number of cells were obtained for each experimental culture treatment, and p values were calculated for differences between the means of each experimental condition.

hPSCs [2] = assay: CHIR concentration optimisation for differentiation of hPSCs towards a myogenic phenotype
Method: as §1, with “Starting at day 0 of differentiation, cells were cultured in the presence of 3 μM CHIR 99021 (Miltenyi Biotech, Auburn, Calif.) for 4 days.” left out, “analysis. Human PSCs were first exposed to 3 μM CHIR for 4 days, and then the small molecule was replaced with 20 ng/ml of FGF2 for an additional 2 weeks (FIG. 2A). To optimize the differentiation of hPSCs towards a myogenic phenotype, different CHIR concentrations were tested. […] The FGF signaling pathway has been identified to regulate several developmental processes of muscle formation. […]” for “analysis.”

hESC (HES3) = assay: RT-PCR and marker analysis of dorsal tissue and endoderm in differentiating hPSCs
Method: For cytospin preparations of FACS sorted populations, cells were spun onto glass slides using Cytospin 4 (Shandon, Thermofisher, Waltham, Mass.). Cells were then fixed with 100% cold methanol for 5 minutes and subsequently rehydrated in phosphate buffered solution (PBS) for 15-20 minutes. Cultured cells were fixed with 4% paraformaldehyde for 10 minutes at room temperature and permeabilized with 0.3% Triton X-100 in PBS for 30 minutes. A complete list of primary and fluorochrome-labelled secondary antibodies used in this study is provided in the Supporting Information (Table 1). Incubations with primary and subsequently secondary antibodies were performed in Incubation Buffer (0.1% BSA, 2% FBS, 0.1% Triton X-100 in PBS) for 40 minutes at 37° C. Image acquisition was performed on an inverted Nikon Eclipse Ti epifluorescence microscope with the appropriate filter sets using single channel acquisition on a Nikon Digital sight DS-U2 camera. Images were analyzed with Nikon NIS-Elements 3.2 software. All immunofluorescence images are representative of one individual experiment. […]
Total RNA was extracted using RNeasy Mini kit (Qiagen, Hilden, Germany), and DNAse I treatment (Qiagen) was performed to avoid genomic DNA contamination. […] The inventors optimized the PCR conditions and determined the linear amplification range for each primer by varying annealing temperature and cycle number. […]

hPSCs [3] = assay: Immunocytochemical quantification of muscle cells in unsorted hPSC cultures; conditions: exposure to CHIR for up to 10 days
Method: as §1, with “Starting at day 0 of differentiation, cells were cultured in the presence of 3 μM CHIR 99021 (Miltenyi Biotech, Auburn, Calif.) for 4 days.” left out, “Medium was replaced daily until the day of the analysis.” left out
For cytospin preparations of FACS sorted populations, cells were spun onto glass slides using Cytospin 4 (Shandon, Thermofisher, Waltham, Mass.). […] Images were analyzed with Nikon NIS-Elements 3.2 software. […]
Following withdrawal of FGF2 and a further 17 days of culture in ITS medium alone areas with skeletal muscle cells were scored in treated culture dishes, prior to FACS analysis and identified by immunocytochemistry as PAX3+ and PAX7+ precursors (FIG. 2B) (Relaix et al (2005) Nature 435:948-953) and bipolar skeletal myocytes, positive for myogenin and sarcomeric myosin (MF20) (FIG. 2C).

hESC HES3 = assay: Immunocytochemistry of cytospin preparations of sorted cells
Method: as §2
For cytospin preparations of FACS sorted populations, cells were spun onto glass slides using Cytospin 4 (Shandon, Thermofisher, Waltham, Mass.). Cells were then fixed with 100% cold methanol for 5 minutes and subsequently rehydrated in phosphate buffered solution (PBS) for 15-20 minutes. Cultured cells were fixed with 4% paraformaldehyde for 10 minutes at room temperature and permeabilized with 0.3% Triton X-100 in PBS for 30 minutes. A complete list of primary and fluorochrome-labelled secondary antibodies used in this study is provided in the Supporting Information (Table 1). […] Images were analyzed with Nikon NIS-Elements 3.2 software. […]

| Compound | myogenic induction of hPSCs (hPSCs [1]; CHIR only, 3 μM days 0-4, then ITS medium only) | percentage of CXCR4+/C-MET+ and ACHR+ populations compared to CHIR+FGF2 cultures (hPSCs [1]) | toxicity to differentiating hPSCs (hPSCs [2]; CHIR concentration >3 μM) | induction of myogenic phenotype (hPSCs [2]; CHIR doses of <3 μM) | expression of dorsal markers SOX10 and LMX1a (RT-PCR) (hESC (HES3); day 10 of hESC (HES3) differentiation) | generation of endoderm cells (hESC (HES3); lack of specific endodermal markers in the cultures) | muscle derivation after prolonged exposure (hPSCs [3]) | cell fate of CXCR4+/C-MET− and CXCR4−/C-MET+ fractions compared to CHIR+FGF2 (hPSCs [1]; FGF2 only, absence of CHIR treatment) | phenotype of sorted CXCR4+/C-MET− cells (hESC HES3) | phenotype of sorted CXCR4−/C-MET+ cells (hESC HES3) |
| --- | --- | --- | --- | --- | --- | --- | --- | --- | --- | --- |
| Cc1c[nH]c(-c2cnc(NCCNc3ccc(C#N)cn3)nc2-c2ccc(Cl)cc2Cl)n1 [CHIR, CHIR 99021] | sufficient for myogenic induction | Reduction in the percentage | High toxicity | inefficient induction | expressed only in CHIR (GSK3β inhibitor) treated cells | not permissive for the generation of endoderm cells | no muscle cells were identified | – | – | – |
| FGF2: fibroblast growth factor, used at 20 ng/ml to expand the muscle precursor compartment | – | almost complete loss | – | – | – | – | – | fundamental shift from a myogenic to a non-myogenic cell fate | complete switch towards SOX1 expression | PAX3+ and PAX7+ cells are not present |
